Measured values: patent publication US11524968B2, “Heterocyclic compound as a protein kinase inhibitor” (HK inno.N Corporation, priority 2017, dated 2022)

biological target: JAK1 (Homo sapiens (Human), UniProt P23458); experiment: Analysis of JAK1 activity inhibition ability (ADP-Glo Kinase Assay); assay type: biochemical; conditions: JAK1 enzyme, ADP-Glo luminescence, ATP 250 uM, IRS-itide substrate, 30° C. 40 minutes; read-out: IC50
In short: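 ADP-Glo luminescence read-out of ADP production, with IC50 taken as the concentration halving JAK1 activity relative to control. Enzyme was incubated 40 min at 30 °C with compound, IRS-itide (40 ng/mL) and ATP (250 uM), concentrations as prepared in pH 7.5 Tris-HCl/MgCl2/BSA/DTT buffer.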

JAK1, sequence (P23458 whole entry): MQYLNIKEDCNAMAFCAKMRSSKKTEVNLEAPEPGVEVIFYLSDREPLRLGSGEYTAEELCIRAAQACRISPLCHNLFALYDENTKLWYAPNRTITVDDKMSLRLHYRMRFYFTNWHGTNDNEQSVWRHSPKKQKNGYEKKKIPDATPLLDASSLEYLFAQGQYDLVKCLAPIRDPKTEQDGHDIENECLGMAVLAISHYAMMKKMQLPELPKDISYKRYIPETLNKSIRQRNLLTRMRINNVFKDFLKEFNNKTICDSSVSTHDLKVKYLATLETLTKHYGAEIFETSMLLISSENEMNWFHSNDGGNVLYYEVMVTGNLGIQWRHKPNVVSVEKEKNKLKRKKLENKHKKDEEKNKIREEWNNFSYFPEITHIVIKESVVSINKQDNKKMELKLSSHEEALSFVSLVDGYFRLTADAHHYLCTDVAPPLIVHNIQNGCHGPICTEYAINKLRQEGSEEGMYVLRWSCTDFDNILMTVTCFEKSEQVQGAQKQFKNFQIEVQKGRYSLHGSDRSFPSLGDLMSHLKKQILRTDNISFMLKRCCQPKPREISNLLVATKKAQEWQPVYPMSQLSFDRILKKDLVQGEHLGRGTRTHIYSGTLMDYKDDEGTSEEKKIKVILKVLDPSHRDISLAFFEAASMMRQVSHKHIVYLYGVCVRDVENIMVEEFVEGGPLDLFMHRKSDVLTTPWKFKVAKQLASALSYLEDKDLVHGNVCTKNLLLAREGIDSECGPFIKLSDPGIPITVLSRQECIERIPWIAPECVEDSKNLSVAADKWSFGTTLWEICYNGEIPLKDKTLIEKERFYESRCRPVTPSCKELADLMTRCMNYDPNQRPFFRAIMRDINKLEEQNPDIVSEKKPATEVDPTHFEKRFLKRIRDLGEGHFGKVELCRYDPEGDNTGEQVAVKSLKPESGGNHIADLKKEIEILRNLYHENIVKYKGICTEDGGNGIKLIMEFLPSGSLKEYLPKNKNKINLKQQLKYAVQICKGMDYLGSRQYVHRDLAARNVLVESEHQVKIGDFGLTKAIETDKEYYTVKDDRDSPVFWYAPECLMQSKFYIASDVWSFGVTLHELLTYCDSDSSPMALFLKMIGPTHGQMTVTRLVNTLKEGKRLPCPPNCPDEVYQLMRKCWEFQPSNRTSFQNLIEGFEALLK

| SMILES | IC50 [nM] |
| --- | --- |
| CC1CN(C(=O)c2ccnc(N)c2)CC=C1c1cc(NC(=O)C2CC2)nc2[nH]ccc12 (stereo not drawn) [Example 381, N-(4-(1-(2-aminoisonicotinoyl)-3-methyl-1,2,3,6-tetrahydropyridin-4-yl)-1H-pyrrolo[2,3-b]pyridin-6-yl)cyclopropanecarboxamide] | > 200 |
| CC1CN(C(=O)c2ccnc(Br)c2)CC=C1c1cc(NC(=O)C2CC2)nc2[nH]ccc12 (stereo not drawn) [Example 382, N-(4-(1-(2-bromoisonicotinoyl)-3-methyl-1,2,3,6-tetrahydropyridin-4-yl)-1H-pyrrolo[2,3-b]pyridin-6-yl)cyclopropanecarboxamide] | 20 to 200 |
| CC1CN(C(=O)c2ccnc(O)c2)CC=C1c1cc(NC(=O)C2CC2)nc2[nH]ccc12 (stereo not drawn) [Example 383, N-(4-(1-(2-hydroxyisonicotinoyl)-3-methyl-1,2,3,6-tetrahydropyridin-4-yl)-1H-pyrrolo[2,3-b]pyridin-6-yl)cyclopropanecarboxamide] | > 200 |
| CC1CN(C(=O)c2ccnc(C(F)(F)F)c2)CC=C1c1cc(NC(=O)C2CC2)nc2[nH]ccc12 (stereo not drawn) [Example 384, N-(4-(3-methyl-1-(2-(trifluoromethyl)isonicotinoyl)-1,2,3,6-tetrahydropyridin-4-yl)-1H-pyrrolo[2,3-b]pyridin-6-yl)cyclopropanecarboxamide] | 20 to 200 |
| CC1(C)CC(c2cc(NC(=O)C3CC3)nc3[nH]ccc23)=CCN1C(=O)c1ccnc(F)c1 [Example 385, N-(4-(1-(2-fluoroisonicotinoyl)-2,2-dimethyl-1,2,3,6-tetrahydropyridin-4-yl)-1H-pyrrolo[2,3-b]pyridin-6-yl)cyclopropanecarboxamide] | < 20 |
| CC1(C)CC(c2cc(NC(=O)C3CC3)nc3[nH]ccc23)=CCN1C(=O)c1ccnc(Cl)c1 [Example 386, N-(4-(1-(2-chloroisonicotinoyl)-2,2-dimethyl-1,2,3,6-tetrahydropyridin-4-yl)-1H-pyrrolo[2,3-b]pyridin-6-yl)cyclopropanecarboxamide] | 20 to 200 |
| CC1(C)CC(c2cc(NC(=O)C3CC3)nc3[nH]ccc23)=CCN1C(=O)CC#N [Example 387, N-(4-(1-(2-cyanoacetyl)-2,2-dimethyl-1,2,3,6-tetrahydropyridin-4-yl)-1H-pyrrolo[2,3-b]pyridin-6-yl)cyclopropanecarboxamide] | 20 to 200 |
| C[C@@H]1C=C(c2cc(NC(=O)C3CC3)nc3[nH]ccc23)CCN1C(=O)CC#N [Example 388, (R)—N-(4-(1-(2-cyanoacetyl)-6-methyl-1,2,3,6-tetrahydropyridin-4-yl)-1H-pyrrolo[2,3-b]pyridin-6-yl)cyclopropanecarboxamide] | < 20 |
| C[C@@H]1CC(c2cc(NC(=O)C3CC3)nc3[nH]ccc23)=CCN1C(=O)CC#N [Example 389, (R)—N-(4-(1-(2-cyanoacetyl)-2-methyl-1,2,3,6-tetrahydropyridin-4-yl)-1H-pyrrolo[2,3-b]pyridin-6-yl)cyclopropanecarboxamide] | < 20 |
| C[C@H]1C=C(c2cc(NC(=O)C3CC3)nc3[nH]ccc23)CCN1C(=O)CC#N [Example 390, (S)—N-(4-(1-(2-cyanoacetyl)-6-methyl-1,2,3,6-tetrahydropyridin-4-yl)-1H-pyrrolo[2,3-b]pyridin-6-yl)cyclopropanecarboxamide] | < 20 |
| C[C@H]1CC(c2cc(NC(=O)C3CC3)nc3[nH]ccc23)=CCN1C(=O)CC#N [Example 391, (S)—N-(4-(1-(2-cyanoacetyl)-2-methyl-1,2,3,6-tetrahydropyridin-4-yl)-1H-pyrrolo[2,3-b]pyridin-6-yl)cyclopropanecarboxamide] | 20 to 200 |
| CC1CN(C(=O)c2ccnc(C#N)c2)CC=C1c1cc(NC(=O)C2CC2)nc2[nH]ccc12 (stereo not drawn) [Example 392, N-(4-(1-(2-cyanoisonicotinoyl)-3-methyl-1,2,3,6-tetrahydropyridin-4-yl)-1H-pyrrolo[2,3-b]pyridin-6-yl)cyclopropanecarboxamide] | 20 to 200 |
| N#CCC(=O)N1CC=C(c2cc(NC(=O)C3CC3)nc3[nH]ccc23)CC1C(F)(F)F (stereo not drawn) [Example 393, N-(4-(1-(2-cyanoacetyl)-2-(trifluoromethyl)-1,2,3,6-tetrahydropyridin-4-yl)-1H-pyrrolo[2,3-b]pyridin-6-yl)cyclopropanecarboxamide] | < 20 |
| N#CCC(=O)N1C2C=C(c3cc(NC(=O)C4CC4)nc4[nH]ccc34)CC1CCC2 (stereo not drawn) [Example 394, N-(4-(9-(2-cyanoacetyl)-9-azabicyclo[3.3.1]non-2-en-3-yl)-1H-pyrrolo[2,3-b]pyridin-6-yl)cyclopropanecarboxamide] | < 20 |
| C[C@@H]1CN(C(=O)c2ccnc(F)c2)CC=C1c1cc(NC(=O)C2CC2)nc2[nH]ccc12 [Example 395, (S)—N-(4-(1-(2-fluoroisonicotinoyl)-3-methyl-1,2,3,6-tetrahydropyridin-4-yl)-1H-pyrrolo[2,3-b]pyridin-6-yl)cyclopropanecarboxamide] | < 20 |
| C[C@@H]1CN(C(=O)c2ccnc(F)c2F)CC=C1c1cc(NC(=O)C2CC2)nc2[nH]ccc12 [Example 396, (S)—N-(4-(1-(2,3-difluoroisonicotinoyl)-3-methyl-1,2,3,6-tetrahydropyridin-4-yl)-1H-pyrrolo[2,3-b]pyridin-6-yl)cyclopropanecarboxamide] | < 20 |
| C[C@@H]1CN(C(=O)c2cccc(Br)c2)CC=C1c1cc(NC(=O)C2CC2)nc2[nH]ccc12 [Example 397, (S)—N-(4-(1-(3-bromobenzoyl)-3-methyl-1,2,3,6-tetrahydropyridin-4-yl)-1H-pyrrolo[2,3-b]pyridin-6-yl)cyclopropanecarboxamide] | < 20 |
| C[C@@H]1CN(C(=O)c2ccc([N+](=O)[O-])cc2)CC=C1c1cc(NC(=O)C2CC2)nc2[nH]ccc12 [Example 398, (S)—N-(4-(3-methyl-1-(4-nitrobenzoyl)-1,2,3,6-tetrahydropyridin-4-yl)-1H-pyrrolo[2,3-b]pyridin-6-yl)cyclopropanecarboxamide] | < 20 |
| C[C@@H]1CN(C(=O)c2ccnc(Cl)c2)CC=C1c1cc(NC(=O)C2CC2)nc2[nH]ccc12 [Example 399, (S)—N-(4-(1-(2-chloroisonicotinoyl)-3-methyl-1,2,3,6-tetrahydropyridin-4-yl)-1H-pyrrolo[2,3-b]pyridin-6-yl)cyclopropanecarboxamide] | < 20 |
| C[C@@H]1CN(C(=O)c2ccc(Cl)nc2)CC=C1c1cc(NC(=O)C2CC2)nc2[nH]ccc12 [Example 400, (S)—N-(4-(1-(6-chloronicotinoyl)-3-methyl-1,2,3,6-tetrahydropyridin-4-yl)-1H-pyrrolo[2,3-b]pyridin-6-yl)cyclopropanecarboxamide] | < 20 |
| C[C@@H]1CN(C(=O)CCl)CC=C1c1cc(NC(=O)C2CC2)nc2[nH]ccc12 [Example 401, (S)—N-(4-(1-(2-chloroacetyl)-3-methyl-1,2,3,6-tetrahydropyridin-4-yl)-1H-pyrrolo[2,3-b]pyridin-6-yl)cyclopropanecarboxamide] | 20 to 200 |
| C[C@@H]1CN(C(=O)c2ccncc2F)CC=C1c1cc(NC(=O)C2CC2)nc2[nH]ccc12 [Example 402, (S)—N-(4-(1-(3-fluoroisonicotinoyl)-3-methyl-1,2,3,6-tetrahydropyridin-4-yl)-1H-pyrrolo[2,3-b]pyridin-6-yl)cyclopropanecarboxamide] | < 20 |
| C[C@@H]1CN(C(=O)C(C#N)=Cc2cccs2)CC=C1c1cc(NC(=O)C2CC2)nc2[nH]ccc12 [Example 403, (S)—N-(4-(1-(2-cyano-3-(thiophen-2-yl)acryloyl)-3-methyl-1,2,3,6-tetrahydropyridin-4-yl)-1H-pyrrolo[2,3-b]pyridin-6-yl)cyclopropanecarboxamide] | 20 to 200 |
| C[C@@H]1CN(C(=O)C(=Cc2ccccc2)CC#N)CC=C1c1cc(NC(=O)C2CC2)nc2[nH]ccc12 [Example 404, (S)—N-(4-(1-(2-(cyanomethyl)-3-phenylacryloyl)-3-methyl-1,2,3,6-tetrahydropyridin-4-yl)-1H-pyrrolo[2,3-b]pyridin-6-yl)cyclopropanecarboxamide] | 20 to 200 |
| C[C@@H]1CN(C(=O)c2cccn(C)c2=O)CC=C1c1cc(NC(=O)C2CC2)nc2[nH]ccc12 [Example 405, (S)—N-(4-(3-methyl-1-(1-methyl-2-oxo-1,2-dihydropyridine-3-carbonyl)-1,2,3,6-tetrahydropyridin-4-yl)-1H-pyrrolo[2,3-b]pyridin-6-yl)cyclopropanecarboxamide] | > 200 |
| C[C@@H]1CN(C(=O)CC2(C#N)CCCCC2)CC=C1c1cc(NC(=O)C2CC2)nc2[nH]ccc12 [Example 406, (S)—N-(4-(1-(2-(1-cyanocyclohexyl)acetyl)-3-methyl-1,2,3,6-tetrahydropyridin-4-yl)-1H-pyrrolo[2,3-b]pyridin-6-yl)cyclopropanecarboxamide] | < 20 |
| C[C@@H]1CN(C(=O)C2(C#N)CCOCC2)CC=C1c1cc(NC(=O)C2CC2)nc2[nH]ccc12 [Example 407, (S)—N-(4-(1-(4-cyanotetrahydro-2H-pyran-4-carbonyl)-3-methyl-1,2,3,6-tetrahydropyridin-4-yl)-1H-pyrrolo[2,3-b]pyridin-6-yl)cyclopropanecarboxamide] | 20 to 200 |
| CC(C)=C(C#N)C(=O)N1CC=C(c2cc(NC(=O)C3CC3)nc3[nH]ccc23)[C@H](C)C1 [Example 408, (S)—N-(4-(1-(2-cyano-3-methylbut-2-enoyl)-3-methyl-1,2,3,6-tetrahydropyridin-4-yl)-1H-pyrrolo[2,3-b]pyridin-6-yl)cyclopropanecarboxamide] | 20 to 200 |
| CCC1C=C(c2cc(NC(=O)C3CC3)nc3[nH]ccc23)CC(CC)N1C(=O)CC#N (stereo not drawn) [Example 409, N-(4-(1-(2-cyanoacetyl)-2,6-diethyl-1,2,3,6-tetrahydropyridin-4-yl)-1H-pyrrolo[2,3-b]pyridin-6-yl)cyclopropanecarboxamide] | < 20 |
| CC(C)C1CC(c2cc(NC(=O)C3CC3)nc3[nH]ccc23)=CCN1C(=O)CC#N (stereo not drawn) [Example 410, N-(4-(1-(2-cyanoacetyl)-2-isopropyl-1,2,3,6-tetrahydropyridin-4-yl)-1H-pyrrolo[2,3-b]pyridin-6-yl)cyclopropanecarboxamide] | < 20 |
